Reference: patent US20040058855A1, “Use of materials having zinc ionophoric behavior” (priority 2002, published 2004)
Read-outs that look alike come from different tables or passages of the source.

Tests used:
[1] = system: Malassezia furfur (ATCC 14521); assay: Minimum inhibitory concentration (MIC) against Malassezia furfur in mDixon agar; type: cell-based; settings: for MIC: Malassezia furfur, lowest tested dilution with no visible growth, 30° for 5 days
Description: Antifungal activity is assessed microbiologically by a method as described below^1.
^1. The Minimum Inhibitory Concentration is indicative of anti-fungal efficacy. Generally, the lower the value of the composition, the better its anti-fungal efficacy, due to increased inherent ability of the anti-dandruff agent to inhibit the growth of microorganisms.
Dilutions of solubilized anti-microbial active were then added to test tubes containing molten mDixon agar. M. furfur inoculum was added to each tube of molten agar, the tube vortexed, and the contents poured into separate sterile petri dishes. […] The lowest tested dilution of anti-microbial active that yields no growth is defined as the Minimal Inhibitory Concentration (MIC).
1) Malassezia furfur was grown in a 250 ml Erlenmeyer flask containing 100 ml “mDIXON” medium at 320 rpm and 30° C. until turbid.
2) Selected dilutions were prepared using an appropriate dilution series, of the anti-microbial active or combination in solvent, which allowed the sample active to be solubilized prior to addition to the final test agar.
3) 0.25 ml dilutions of anti-microbial active were added to test tubes containing 9.5 ml molten “mDIXON” agar (held at 45° C. in a water bath).
4) 0.25 M. furfur inoculum (adjusted to 5×10^5 cfu/ml by direct count) was added to each test tube of molten agar.
5) Each tube was vortexed, and the contents poured into separate petri dishes.
6) After the agar solidified, the plates inverted and incubated at 30° for 5 days.
7) The plates were then observed for visible M. furfur growth.
Anti-fungal activity of materials having zinc ionophoric behavior was screened by measurement of minimum inhibitory concentrations (MIC's) against Malassezia furfur.

[2] = system: human umbilical vein endothelial cells; assay: Rate of zinc transport into model cells (intracellular zinc, Fura-2 fluorescence); type: cell-based; settings: 1 mM ZPT (0.32 ppm) and an equal weight proportion of zinc salt
Description: Measurement of the free zinc levels in cells as a function of time is a direct measure of delivery of zinc across the cell wall/membrane. There are many methods available for assessing this process, many are based on use of intracellular fluorescent dyes. An exemplary method is similar to that reported by Turan et al. (Turan, […]. Am. J. Physiol. 1997, 272, […]-[…]). In this case, […] used, although the procedure is general and can be used with all eukaryotic cells. […] Cells are plated onto a glass cover slip. These immobilized cells are then exposed to a zinc-responsive fluorescent dye such as Fura-2 (Molecular Probes, Inc.) to load the cells with this cell-permeant fluorophore. The cells are then washed to remove dye that is not intracellular. Upon exposure to test treatments, fluorescence is measured as a function of time; in the case of Fura-2, the ratio of fluorescence intensities at 505 nm is taken in response to excitation at 340 and 380 nm. The fluorescence is conveniently measured by using an epifluorescence inverted microscope interfaced to a spectrofluorometer. Fluorescence intensity is proportional to the detected zinc level. […] TPEN) to assure the measured fluorescent response is due to zinc and not an artifact of calcium transport. In the present invention, the method as described herein may be used to identify materials with zinc ionophoric behavior.

[3] = Zinc availability test with metallochromic dye zincon (colour change orange to blue); type: physicochemical; settings: ~30 mg/10 ml water, pH 7-11, zincon in ethanol
Description: Zinc-containing materials (ZCMs) differ with respect to how strongly the zinc ion (Zn^2+) is held by counterions in the crystal lattice. The benefits discussed herein depend upon having available Zn^2+. […] The response is a binary visual assessment of whether or not the color changes indicating zinc-binding.
The method is based on the commercial metallochromic dye zincon. Zincon changes from an orange color to blue upon binding zinc and provides the basis for detecting available Zn^2+: [drawing 20]
The specific procedure involves making a stock solution of zincon in ethanol (˜50 mg/10 ml ethanol). The ZCM is then added to water (˜30 mg/10 ml water) and agitated (pH range should be 7-11). Three to four drops of zincon solution are then added to the ZCM in water, agitated and a visual assessment of color change made.

[4] = ATCC14521, 120 h, read-out: MIC
[5] = to inhibit M. furfur growth, zinc salt alone (MIC) or together with the stated amount of ZPT

| Compound | available Zn^2+ (zincon colour change, binary visual assessment) [3] | other results |
| --- | --- | --- |
| Oc1c(Br)cc(Br)c2cccnc12 [5,7-D-Br-8-HQ, 5-7-Bibromo-8-hydroxyquinoline] | – | MIC [1, 4]: 25 µg/mL |
| CNc1ccc2oc(C[C@H]3O[C@@]4(CC[C@H]3C)O[C@H]([C@H](C)C(=O)c3ccc[nH]3)[C@H](C)C[C@H]4C)nc2c1C(=O)O [A23187, Calcimycin] | – | MIC [1, 4]: > 13 µg/mL |
| Oc1c(I)cc(I)c2cccnc12 [Diodoquin, 5,7-Diiodo-8-hydroxyquinoline] | – | MIC [1, 4]: 25 µg/mL |
| Oc1c(I)cc(Cl)c2cccnc12 [Enterovioform, 5-Cl, 7-I-8-hydroxyquinoline] | – | MIC [1, 4]: 25 µg/mL |
| Cc1ccc2c(Cl)cc(Cl)c(O)c2n1 [Sterosan, 2-Me, 5,7-Dichloro-8-hydroxyquinoline] | – | MIC [1, 4]: 100 µg/mL |
| CCCCN(CCCC)C(=S)SSC(=S)N(CCCC)CCCC [TBTDS, Tetra-n-butyl thiuram Disulfide] | – | MIC [1, 4]: > 1000 µg/mL |
| [O-]n1ccccc1=S.[O-]n1ccccc1=S.[Zn+2] [ZPT, zinc salt of 1-hydroxy-2-pyridinethione] | – | Rate of Zinc Transport [2]: 4 min⁻¹; Antifungal activity of ZPT: Amount of zinc salt required [1, 5]: 0 ppm; Antifungal activity of ZPT: Amount of ZPT Required (%) ([1]; to inhibit M. furfur growth, 100% ZPT is equivalent to 8 ppm (MIC of ZPT alone)): 100% |
| [O]=[Zn] [ZnO, zinc oxide] | have available zinc | Rate of Zinc Transport [2]: ˜0 min^−1; Antifungal activity of ZPT: Amount of zinc salt required [1, 5]: 500 ppm |
| O=S(=O)([O-])[O-].[Zn+2] [ZnSO4, zinc sulfate] | have available zinc | Rate of Zinc Transport [2]: ˜0 min^−1; Antifungal activity of ZPT: Amount of zinc salt required [1]: 5000 ppm |
| O=C([O-])CN(CCN(CC(=O)[O-])CC(=O)[O-])CC(=O)[O-].[Na+].[Na+].[Zn+2] [zinc EDTA] | not having available Zn^2+ | – |
| CC(=O)[O-].CC(=O)[O-].[Zn+2] [zinc acetate] | have available zinc | – |
| N=C(N)NCCC[C@H](N)C(=O)O.[Zn] [zinc arginine] | have available zinc | – |
| [Cl-].[Cl-].[Zn+2] [zinc chloride] | have available zinc | – |
| O=C([O-])CC(O)(CC(=O)[O-])C(=O)[O-].O=C([O-])CC(O)(CC(=O)[O-])C(=O)[O-].[Zn+2].[Zn+2].[Zn+2] [zinc citrate] | have available zinc | – |
| [OH-].[OH-].[Zn+2] [zinc hydroxide] | have available zinc | – |
| CC(O)C(=O)[O-].CC(O)C(=O)[O-].[Zn+2] (centres unmarked) [zinc lactate] | have available zinc | – |
| OCC(O)CO.[Zn] [zinc monoglycerolate] | have available zinc | – |
| O=C([O-])C(=O)[O-].[Zn+2] [zinc oxalate] | have available zinc | – |
| Lasalocid | – | MIC [1]: >1000 ppm |
| zinc hexaborate | have available zinc | – |
| zinc histadine | have available zinc | – |
| zinc phytate | not having available Zn^2+ | – |
| zinc stearate | have available zinc | – |
